# In article PMC3368905, “Inhibition of Ion Channels and Heart Beat in Drosophila by Selective COX-2 Inhibitor SC-791” (PLoS ONE, 2012):
# pIC50: −log10 of the molar value.
# Molecular target: T1, Shab channel (IKS, delayed rectifier, Drosophila Kv2) (Drosophila melanogaster, UniProt P17970)
# T1 construct: native channel in larval body-wall muscles (fiber 12)
# T1 sequence (P17970 1-1015): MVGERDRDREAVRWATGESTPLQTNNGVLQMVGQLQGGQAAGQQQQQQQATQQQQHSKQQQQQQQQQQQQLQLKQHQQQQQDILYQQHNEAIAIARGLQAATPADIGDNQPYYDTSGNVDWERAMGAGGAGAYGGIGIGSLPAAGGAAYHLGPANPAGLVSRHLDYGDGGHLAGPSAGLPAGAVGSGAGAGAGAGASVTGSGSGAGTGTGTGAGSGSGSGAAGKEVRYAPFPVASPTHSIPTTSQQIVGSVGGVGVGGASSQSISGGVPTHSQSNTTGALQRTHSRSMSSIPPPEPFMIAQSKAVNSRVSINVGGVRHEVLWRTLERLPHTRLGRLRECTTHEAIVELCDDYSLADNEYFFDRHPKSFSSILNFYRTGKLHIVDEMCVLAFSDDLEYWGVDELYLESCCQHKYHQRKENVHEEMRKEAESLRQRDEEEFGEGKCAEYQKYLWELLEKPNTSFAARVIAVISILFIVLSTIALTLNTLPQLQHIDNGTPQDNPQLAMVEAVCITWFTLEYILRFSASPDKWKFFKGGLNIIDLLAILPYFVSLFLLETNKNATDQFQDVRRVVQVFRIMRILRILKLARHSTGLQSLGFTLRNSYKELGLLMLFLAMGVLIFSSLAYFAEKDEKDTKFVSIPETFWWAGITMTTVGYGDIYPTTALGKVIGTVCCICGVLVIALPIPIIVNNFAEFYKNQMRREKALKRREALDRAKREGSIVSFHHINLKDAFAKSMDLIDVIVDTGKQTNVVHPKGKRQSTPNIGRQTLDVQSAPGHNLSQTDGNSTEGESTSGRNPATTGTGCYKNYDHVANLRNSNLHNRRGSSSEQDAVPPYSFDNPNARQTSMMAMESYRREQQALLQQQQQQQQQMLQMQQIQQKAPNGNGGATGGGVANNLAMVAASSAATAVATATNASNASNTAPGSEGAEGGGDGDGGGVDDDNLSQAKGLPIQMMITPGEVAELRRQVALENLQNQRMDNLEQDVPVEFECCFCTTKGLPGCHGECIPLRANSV
# Assay: two-microelectrode voltage clamp of native IKS in larval muscle
# Assay type: cell-based
smiles,measurement,value
NS(=O)(=O)c1ccc(-c2c(-c3ccccc3)noc2C(F)F)cc1 [SC-791],pIC50,4.68
